Laboratory results from patent US20110152166A1, “METHOD OF MODULATION OF PROTEIN PHOSPHORYLATION-DEPENDENT CONFORMATIONAL TRANSITIONS WITH LOW MOLECULAR WEIGHT COMPOUNDS” (priority 2006, published 2011).
Positions count from the first letter of the chain named. Read-outs that look alike come from different tables or passages of the source. Ends that are not written are not given here.

Key:
Assay in all cases: PDK1 activity assay with T308tide
Type in all cases: biochemical
GST-PDK1 [Arg131Met] = molecular target: T1, GST-PDK1 [Arg131Met] (Homo sapiens, UniProt O15530, R131M)
T1 construct: different protein constructs, comprising the full length protein or the catalytic domain alone; made in house; host or cells: HEK293 cells (pEBG-2T-PDK1 mutant)
T1 sequence (O15530 1-556 R131M): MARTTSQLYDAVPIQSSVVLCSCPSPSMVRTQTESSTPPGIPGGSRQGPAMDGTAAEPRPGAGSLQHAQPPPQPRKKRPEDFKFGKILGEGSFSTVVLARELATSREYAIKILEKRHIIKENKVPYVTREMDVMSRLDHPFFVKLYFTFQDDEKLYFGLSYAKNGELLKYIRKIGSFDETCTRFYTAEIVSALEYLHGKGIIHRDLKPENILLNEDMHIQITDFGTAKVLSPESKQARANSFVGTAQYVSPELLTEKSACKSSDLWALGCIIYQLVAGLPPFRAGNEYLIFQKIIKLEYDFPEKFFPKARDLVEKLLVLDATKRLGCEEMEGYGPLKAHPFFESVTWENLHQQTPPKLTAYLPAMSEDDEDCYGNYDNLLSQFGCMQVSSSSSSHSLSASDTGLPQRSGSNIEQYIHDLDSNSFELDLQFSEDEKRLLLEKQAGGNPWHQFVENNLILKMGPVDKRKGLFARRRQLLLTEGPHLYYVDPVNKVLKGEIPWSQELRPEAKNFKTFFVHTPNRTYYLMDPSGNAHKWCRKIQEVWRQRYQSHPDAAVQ

GST-PDK1 [Leu155Ala] = molecular target: T2, GST-PDK1 [Leu155Ala] (Homo sapiens, UniProt O15530, L155A)
T2 construct: different protein constructs, comprising the full length protein or the catalytic domain alone; made in house; host or cells: HEK293 cells (pEBG-2T-PDK1 mutant)
T2 sequence (O15530 1-556 L155A): T1 sequence (O15530 1-556 R131M) with M131R, L155A

GST-PDK1 [Leu155Val] = molecular target: T3, GST-PDK1 [Leu155Val] (Homo sapiens, UniProt O15530, L155V)
T3 construct: different protein constructs, comprising the full length protein or the catalytic domain alone; made in house; host or cells: HEK293 cells (pEBG-2T-PDK1 mutant)

GST-PDK1 [Val124Leu] = molecular target: T4, GST-PDK1 [Val124Leu] (Homo sapiens, UniProt O15530, V124L)
T4 construct: different protein constructs, comprising the full length protein or the catalytic domain alone; made in house; host or cells: HEK293 cells (pEBG-2T-PDK1 mutant)
T4 sequence (O15530 1-556 V124L): T1 sequence (O15530 1-556 R131M) with V124L, M131R

T3 sequence (O15530 whole entry L155V, the tested form may be a part): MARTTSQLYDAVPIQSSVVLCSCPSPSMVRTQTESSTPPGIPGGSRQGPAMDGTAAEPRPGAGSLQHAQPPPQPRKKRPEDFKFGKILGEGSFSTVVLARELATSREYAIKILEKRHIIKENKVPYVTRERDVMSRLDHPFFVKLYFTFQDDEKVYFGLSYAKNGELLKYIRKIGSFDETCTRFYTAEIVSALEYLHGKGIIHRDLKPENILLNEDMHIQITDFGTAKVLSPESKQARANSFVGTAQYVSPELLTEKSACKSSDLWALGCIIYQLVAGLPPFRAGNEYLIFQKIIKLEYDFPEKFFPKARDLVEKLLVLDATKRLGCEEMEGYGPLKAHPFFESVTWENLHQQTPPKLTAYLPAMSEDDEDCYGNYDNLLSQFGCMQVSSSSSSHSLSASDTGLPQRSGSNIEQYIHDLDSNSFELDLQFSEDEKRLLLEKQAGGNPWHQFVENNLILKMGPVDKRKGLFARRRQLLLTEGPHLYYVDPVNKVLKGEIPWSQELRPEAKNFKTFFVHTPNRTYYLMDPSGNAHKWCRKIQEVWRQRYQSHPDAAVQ

Row | Compound | activation of PDK1 mutant (in words) (GST-PDK1 [Arg131Met]; Arg131 mutated to Met) | AC50 (GST-PDK1 [Arg131Met]; GST-PDK1 [Arg131Met]) | AC50 (GST-PDK1 [Leu155Ala]) | Max. activity (GST-PDK1 [Leu155Ala]) | AC50 (GST-PDK1 [Leu155Val]) | AC50 (GST-PDK1 [Val124Leu]) | Max. activity (GST-PDK1 [Val124Leu]) | Max. activity (GST-PDK1 [Arg131Met]; GST-PDK1 [Arg131Met]) | AC50 (GST-PDK1 [Arg131Met]; GST-PDK1 [Arg131Met], read-out: AC50)
1 | O=C(O)CSC(CC(=O)c1ccc(Cl)cc1)c1ccccc1 (centres unmarked) [Compound 1] | no longer activated | No Effect | > 200 µM | 2.02 ± 0.61 U/mg | No Effect | 180 ± 60 µM | 1.1 ± 0.13 U/mg | – | –
2 | REPRILSEEEQEMFRDFDYIADWC [PIFtide, reference compound] | – | – | 3.7 ± 0.66 µM | 3.46 ± 0.15 U/mg | No Effect | 0.35 ± 0.2 µM | 0.59 ± 0.04 U/mg | 0.34 ± 0.06 U/mg | 0.29 ± 0.05 µM
